Tests used:
[1] = Subject Global Evaluations in Phase III open-label multi-day study of IV acetaminophen (4 point categorical rating scale); assay type: in vivo, human; conditions: for Subject Global Assessment, level of satisfaction with the study treatments, difference versus control group: any of the assessment points
Procedure: A Phase III, open-label, prospective, multi-center, repeated dose, randomized, multi-day safety and efficacy study was conducted in 213 subjects. The subjects were randomized as follows: 92 subjects to a q6 group (1 g of IV acetaminophen every 6 hours), 91 subjects to a q4 group (650 mg of IV acetaminophen every 4 hours), and 28 subjects to a standard of care control group, which could include oral acetaminophen, but no IV acetaminophen. […] The primary endpoint was an assessment of safety using spontaneous adverse event reporting and daily liver enzymes. Efficacy evaluations were also performed. All analyses of efficacy were conducted on the modified intent-to-treat population separately for the two indications (acute pain and fever). Subjects' Global Evaluations were summarized descriptively (n, mean, SD, median, minimum, and maximum) by treatment group for each study day and for overall assessments. Summary statistics were also provided for each site. Comparisons of efficacy endpoints between the following pairs of treatment groups were investigated using two-sided tests at the 5% level of significance: • IV acetaminophen 1 g versus IV acetaminophen 650 mg • IV acetaminophen 1 g versus standard of care treatment • IV acetaminophen 650 mg versus standard of care treatment A one-way analysis of variance (ANOVA) model with treatment group as the factor was used to test the treatment difference between these pairs. All groups were included in this analysis model. The p-values from the ANOVA model were presented along with the summary statistics. […] A one-way ANOVA model with treatment group as the factor was used to test the treatment difference between each treatment pair: • IV acetaminophen 1 g q6h versus IV acetaminophen 650 mg […] • IV acetaminophen 1 g q6h versus standard of care treatment (Control) • IV acetaminophen 650 mg […] versus standard of care treatment (Control) All endpoints were tested at the 0.05 significance level (two-sided).

[2] = Safety assessment in Phase III open-label multi-day study (adverse event reporting, daily liver enzymes, laboratory, vital signs); assay type: in vivo, human; conditions: for Tolerability: up to 5 days
Procedure: A Phase III, open-label, prospective, multi-center, repeated dose, randomized, multi-day safety and efficacy study was conducted in […] subjects. The subjects were randomized as follows: 92 subjects to a q6 group (1 g of IV acetaminophen every 6 hours), 91 subjects to a q4 group (650 mg of IV acetaminophen every 4 hours), and 28 subjects to a standard of care control group, which could include oral acetaminophen, but no IV acetaminophen. Subjects who completed 5 days of study treatment included 63 in the q6 group, 59 in the q4 group and 26 in the control group. The primary endpoint was an assessment of safety using spontaneous adverse event reporting and daily liver enzymes. Efficacy evaluations were also performed.
All analyses of safety were conducted on the safety population.
Percentage of subjects withdrawn due to adverse event, percentage of subjects with adverse events (AEs) or serious adverse events (SAEs), and percentage of subjects with clinically meaningful changes in laboratory parameters were summarized.
All adverse events and serious adverse events were coded according to the Medical Dictionary for Regulatory Activities (MedDRA), Version 10.0. […] Liver function test abnormalities were graded using the Common Terminology Criteria for Adverse Events.
For each clinical laboratory parameter, descriptive statistics (n, mean, standard deviation, median, and range) were tabulated for baseline and final values. Change from baseline was tabulated for those subjects who had both baseline and final values. Liver function tests were also evaluated using values that were normalized to the upper limit of normal values for the local laboratory.
A shift table was prepared to present the shift in baseline clinical laboratory values that were clinically relevantly high or low at baseline and/or final measurement.
Descriptive statistics (n, mean, standard deviation, median, and range) were tabulated for changes in vital signs from baseline to final measurement.

## CC(=O)Nc1ccc(O)cc1 [IV acetaminophen, acetaminophen]
[1]; 650 mg q4h IV, day 4, scale 0-3, control 2.2, p=0.1162
  Subject Global Assessment, level of satisfaction with the side effects related to study treatments, mean rating: 2.5
[1]; 650 mg q4h IV, day 5 24 h lookback, scale 0=poor to 3=excellent, control 2.0, p=0.0167
  Subject Global Assessment, level of satisfaction with the side effects related to study treatments, mean rating: 2.4
[1]; 650 mg q4h IV, end of day 5 prior to discharge 24 h lookback, scale 0-3, control 2.0, p=0.0129
  Subject Global Assessment, level of satisfaction with the side effects related to study treatments, mean rating: 2.4
[1]; 650 mg q4h group
  Efficacy conclusion based upon the global satisfaction ratings: efficacious
[1]; 650 mg q6h group (so in the source) versus standard of care control
  Subject Global Assessment, level of satisfaction with the study treatments, difference versus control group: no statistically significant differences
[1]; 1 g q6h IV, day 4, scale 0-3, control 2.2, p=0.0744
  Subject Global Assessment, level of satisfaction with the side effects related to study treatments, mean rating: 2.5
[1]; 1 g q6h IV, day 5 24 h lookback, scale 0-3, control 2.0, p=0.0062
  Subject Global Assessment, level of satisfaction with the side effects related to study treatments, mean rating: 2.4
[1]; 1 g q6h IV, end of day 5 prior to discharge 24 h lookback, scale 0-3, control 2.0, p=0.0073
  Subject Global Assessment, level of satisfaction with the side effects related to study treatments, mean rating: 2.5
[1]; 1 g q6h group
  Efficacy conclusion based upon the global satisfaction ratings: efficacious
[1]; 1 g q6h group versus standard of care control
  Subject Global Assessment, level of satisfaction with the study treatments, difference versus control group: no statistically significant differences
[1]; 1 g q6h versus 650 mg q4h, daily 24 h lookback day 2 to end of day 5
  Subject Global Assessments (study treatments or side effects), difference between the two active treatment groups: no statistically significant differences
[2]; 650 mg dose group (q4h)
  Tolerability: well tolerated
[2]; 1000 mg dose group (q6h)
  Tolerability: well tolerated
[2]; between treatment groups, includes alanine aminotransferase and aspartate aminotransferase
  Frequency of liver enzyme elevations seen in the treatment groups: comparable
[2]; q6 (1 g), q4 (650 mg) and standard of care control groups
  Frequency of serious, severe, related, or overall treatment emergent adverse events (TEAEs), difference between the treatment groups: no clinically relevant differences

From patent publication US10383834B2, “Reduced dose intravenous acetaminophen” (MALLINCKRODT HOSPITAL PRODUCTS IP LIMITED, priority 2007, dated 2019)
